The values that follow come from patent US10525055B2, “Opioid receptor antagonist prodrugs” (Nirsum Laboratories, Inc., priority 2017, dated 2020).

Data set [1] is described as follows: Solubility determination in oil (cottonseed oil, sesame oil). Here is the method: A known amount of test substance (˜40 mg) was weighed into the vial, 100 μL of oil was added and heated to 60° C. and then system was slurried to reach equilibrium. […] Extra oil was added into the vial once compound precipitated out and then the system was re-equilibrated at 1000 rpm at room temperature (25° C.). Final concentration was determined by HPLC method as described below in Table 6a and 6b.

The nature of data set [2]: Polymorph screening of solid state drug substances. Conditions: for XRPD results (Dried): stirred 50 °C 72 hours, solids dried; for Visual observation 50° C. / Visual observation RT: target conc. 100 mg/ml.
A short description of data set [3]: Plasma stability assay, rat plasma. Conditions: 37° C., 10 μM. Format: in vitro ADME. Here is the method:
Plasma stability determination of the test compounds in rat, dog, cynomolgus monkey and human plasma is performed using HPLC-MS. For rat, incubations are carried out in 96-well polypropylene plates in 5 aliquots of 70 μL each (one for each time point). […] Five time points are analyzed (0, 15, 120, 480 and 1440 min). For dog, monkey and human, test compounds (2 μM, final solvent concentration 1%) were also incubated at 37° C. and analyzed at five time points (0, 10, 30, 60 and 120 min). All incubations are performed in duplicates. The samples are analyzed by HPLC-MS. The percentage of parent compound remaining after incubation in plasma is determined.

The mark [4] stands for this setting: heating temp. 60 °C, obs. temp. 40 °C.
Setting [5] is: heating temp. 40 °C, obs. temp. 40 °C.
Setting [6] is: heating temp. 60 °C, obs. temp. 25 °C.

As to `C=C1CC[C@@]2(O)C3Cc4ccc(OC(=O)CCCCCCCCCCCCCCCCCCC)c5c4[C@@]2(CCN3CC2CC2)[C@H]1O5` [Compound 16, (4aS,7aS,12bS)-3-(cyclopropylmethyl)-4a-hydroxy-7-methylene-2,3,4,4a,5,6,7,7a-octahydro-1H-4,12-methanobenzofuro[3,2-e]isoquinolin-9-yl icosanoate], the “Approximate Solubility (mg/mL) in Excipient: Sesame oil” value (“Approximate Solubility … Sesame oil” for short) in data set [1] (setting [4]) is 202 to 404 mg/mL. Besides, the “XRPD results (Dried)” value in data set [2] (Acetone), in data set [2] (EtOAc), in data set [2] (Heptane), in data set [2] (Isopropanol) and in data set [2] (MTBE) was “Pattern A” throughout. For the same compound, the “Visual observation 50° C.” value is recorded as “Clear” in data set [2] (Acetone); “Clear” in data set [2] (EtOAc); “Slurry” in data set [2] (Heptane); “Slurry” in data set [2] (Isopropanol); “Clear” in data set [2] (MTBE). Moreover, the “Visual observation RT” value in data set [2] (Acetone) is “Slurry”; in data set [2] (EtOAc), “Slurry”; in data set [2] (Heptane), “Slurry”; in data set [2] (Isopropanol), “Slurry”; in data set [2] (MTBE), “Clear”. Besides, the “Comment: stability of initial crystal form (pattern A)” value in data set [2] (polymorph screen over Heptane, MTBE, Isopropanol, EtOAc, Acetone) was “likely stable form. Same crystal form”.

Consider `C=C1CC[C@@]2(O)C3Cc4ccc(OC(=O)OCCCCCCCC)c5c4[C@@]2(CCN3CC2CC2)[C@H]1O5` [Compound 17, (4aS,7aS,12bS)-3-(cyclopropylmethyl)-4a-hydroxy-7-methylene-2,3,4,4a,5,6,7,7a-octahydro-1H-4,12-methanobenzofuro[3,2-e]isoquinolin-9-yl octyl carbonate], for which, in data set [3], the “% remaining at time point in minutes, 0 min” value worked out at 100%; the “% remaining at time point in minutes, 15 min” value (from here on “% remaining … 15 min”) was found to be 0%; the “% remaining at time point in minutes, 120 min” value (“% remaining … 120 min” for short) was 0%; the “% remaining at time point in minutes, 480 min” value (from here on “% remaining … 480 min”) worked out at 0%. For the same compound, in data set [3], the “% remaining at time point in minutes, 1440 min” value (from here on “% remaining … 1440 min”) was found to be 0%. Moreover, the “Approximate Solubility (mg/mL) in Excipient: Cottonseed oil” value in data set [1] (Cottonseed oil, heating temp. 60 °C, obs. temp. 25 °C) is on record as greater than 408 mg/mL.

As to `C=C1CC[C@@]2(O)C3Cc4ccc(OC(=O)CCCCCCC/C=C\C/C=C\C/C=C\CC)c5c4[C@@]2(CCN3CC2CC2)[C@H]1O5` [Compound 20, (4aS,7aS,12bS)-3-(cyclopropylmethyl)-4a-hydroxy-7-methylene-2,3,4,4a,5,6,7,7a-octahydro-1H-4,12-methanobenzofuro[3,2-e]isoquinolin-9-yl (9Z,12Z,15Z)-octadeca-9,12,15-trienoate], the “Approximate Solubility … Sesame oil” value in data set [1] (setting [5]) is greater than 406 mg/mL.

Regarding `CCCCCCCC/C=C\CCCCCCCCCCCC(=O)Oc1ccc2c3c1O[C@H]1C(=O)CC[C@@]4(O)C(C2)N(CC2CC2)CC[C@]314` [Compound 22, (4aS,7aR,12bS)-3-(cyclopropylmethyl)-4a-hydroxy-7-oxo-2,3,4,4a,5,6,7,7a-octahydro-1H-4,12-methanobenzofuro[3,2-e]isoquinolin-9-yl (Z)-docos-13-enoate], the “Approximate Solubility (mg/mL) in Excipient: Ethanol” value in data set [1] (Ethanol, heating temp. 60 °C, obs. temp. 40 °C) is greater than 397.7 mg/mL. Also, in data set [1] (setting [4]), the “Approximate Solubility … Sesame oil” value was greater than 401.9 mg/mL.

With `CCCCCCCCCCCCCCOC(=O)OCOc1ccc2c3c1O[C@H]1C(=O)CC[C@@]4(O)C(C2)N(CC2CC2)CC[C@]314` [Compound 27, (((4aS,7aR,12bS)-3-(cyclopropylmethyl)-4a-hydroxy-7-oxo-2,3,4,4a,5,6,7,7a-octahydro-1H-4,12-methanobenzofuro[3,2-e]isoquinolin-9-yl)oxy)methyl tetradecyl carbonate], the “Approximate Solubility … Sesame oil” value in data set [1] (setting [6]) was greater than 399.2 mg/mL.

For `C=C1CC[C@@]2(O)C3Cc4ccc(OC(=O)OCCCCCCCCCCCCCCCCCCCC)c5c4[C@@]2(CCN3CC2CC2)[C@H]1O5` [Compound 28, (4aS,7aS,12bS)-3-(cyclopropylmethyl)-4a-hydroxy-7-methylene-2,3,4,4a,5,6,7,7a-octahydro-1H-4,12-methanobenzofuro[3,2-e]isoquinolin-9-yl icosyl carbonate], the “Approximate Solubility … Sesame oil” value in data set [1] (setting [6]) is reported as less than 50.6 mg/mL.

Regarding `C=C1CC[C@@]2(O)C3Cc4ccc(OC(=O)OCCCCCCCCCCCCCCCCCC)c5c4[C@@]2(CCN3CC2CC2)[C@H]1O5` [Compound 33, (4aS,7aS,12bS)-3-(cyclopropylmethyl)-4a-hydroxy-7-methylene-2,3,4,4a,5,6,7,7a-octahydro-1H-4,12-methanobenzofuro[3,2-e]isoquinolin-9-yl octadecyl carbonate], the “Approximate Solubility … Sesame oil” value in data set [1] (setting [6]) is recorded as less than 51 mg/mL.

`C=C1CC[C@@]2(O)C3Cc4ccc(OC(=O)CCC5CCCC5)c5c4[C@@]2(CCN3CC2CC2)[C@H]1O5` [Compound 39, (4aS,7aS,12bS)-3-(cyclopropylmethyl)-4a-hydroxy-7-methylene-2,3,4,4a,5,6,7,7a-octahydro-1H-4,12-methanobenzofuro[3,2-e]isoquinolin-9-yl 3-cyclopentylpropanoate]: the “Approximate Solubility … Sesame oil” value in data set [1] (setting [6]) was 106 to 141 mg/mL.

As for `CC(C)(C)CC(=O)Oc1ccc2c3c1O[C@H]1C(=O)CC[C@@]4(O)C(C2)N(CC2CC2)CC[C@]314` [Compound 42, (4aS,7aR,12bS)-3-(cyclopropylmethyl)-4a-hydroxy-7-oxo-2,3,4,4a,5,6,7,7a-octahydro-1H-4,12-methanobenzofuro[3,2-e]isoquinolin-9-yl 3,3-dimethylbutanoate], the “Approximate Solubility … Sesame oil” value in data set [1] (setting [5]) is reported as less than 52 mg/mL; in data set [1] (setting [4]) it was less than 25.8 mg/mL.

Take `CCCCCCCCCCCCCCCC(=O)OCOc1ccc2c3c1O[C@H]1C(=O)CC[C@@]4(O)C(C2)N(CC2CC2)CC[C@]314` [Compound 49, (((4aS,7aR,12bS)-3-(cyclopropylmethyl)-4a-hydroxy-7-oxo-2,3,4,4a,5,6,7,7a-octahydro-1H-4,12-methanobenzofuro[3,2-e]isoquinolin-9-yl)oxy)methyl hexadecanoate]: the “Approximate Solubility … Sesame oil” value in data set [1] (setting [6]) is recorded as less than 51 mg/mL.

In the case of `CCCCCCCCCCCCCCCCCCCCCC(=O)Oc1ccc2c3c1O[C@H]1C(=O)CC[C@@]4(O)C(C2)N(CC2CC2)CC[C@]314` [Compound 51, (4aS,7aR,12bS)-3-(cyclopropylmethyl)-4a-hydroxy-7-oxo-2,3,4,4a,5,6,7,7a-octahydro-1H-4,12-methanobenzofuro[3,2-e]isoquinolin-9-yl docosanoate], in data set [3], the “% remaining at time point in minutes, 0 min” value is listed as 100%; the “% remaining … 15 min” value was 107.4%; the “% remaining … 120 min” value was 105.3%; the “% remaining … 480 min” value was 88.2%. The “% remaining … 1440 min” value in data set [3] is listed as 92.7%.

Take “Enalapril maleate salt [reference compound]”: in data set [3], the “% remaining at time point in minutes, 0 min” value turned out to be 100%; the “% remaining … 15 min” value came out at 44%; the “% remaining … 120 min” value amounted to 2.9%; the “% remaining … 480 min” value is reported as 8.2%. In addition, the “% remaining … 1440 min” value in data set [3] is reported as 4.8%.
